Reference: PMC3092152 (Molecular oral microbiology, 2011)
Where no end group is shown, it is not given here.

Test system: S. mutans clinical strains
Test: alamarBlue antimicrobial susceptibility test
Assay type: cell-based, Streptococcus mutans
Details: preliminary experiments; 16 S. mutans strains; peptide concentrations 20 μg/ml or below

Molecule	susceptibility of S. mutans strains to the peptide
HBD-1: human β-defensin, salivary cationic antimicrobial peptide (DHYNCVSSGGQCLYSACPIFTKIQGTCYRGKAKCCK; ends and bridges not checked; cysteine pairing not given here; UniProt P60022 33-68, looked up)	no susceptibility
histatin-5	no susceptibility
lysozyme: host protein tested in preliminary experiments against 16 S. mutans strains (protein, UniProt P61626 19-148, looked up) Lysozyme C: KVFERCELARTLKRLGMDGYRGISLANWMCLAKWESGYNTRATNYNAGDRSTDYGIFQINSRYWCNDGKTPGAVNACHLSCSALLQDNIADAVACAKRVVRDPQGIRAWVAWRNRCQNRDVRQYVQGCGV	no susceptibility
